Assay results published in article PMC6812191 (Heliyon, 2019).

Assays:
Type in all cases: cell-based
hERG potassium channel [1] = biological target: hERG potassium channel (Homo sapiens, UniProt Q12809); test: whole-cell patch clamp, tail current inhibition
hERG potassium channel [2] = biological target: hERG potassium channel (Homo sapiens, UniProt Q12809, T623A); test: whole-cell patch clamp, inhibition at […]
hERG potassium channel [3] = biological target: hERG potassium channel (Homo sapiens, UniProt Q12809, S624A); test: whole-cell patch clamp, concentration response
Sequence of hERG potassium channel (Homo sapiens, UniProt Q12809, S624A) (Q12809 whole entry S624A): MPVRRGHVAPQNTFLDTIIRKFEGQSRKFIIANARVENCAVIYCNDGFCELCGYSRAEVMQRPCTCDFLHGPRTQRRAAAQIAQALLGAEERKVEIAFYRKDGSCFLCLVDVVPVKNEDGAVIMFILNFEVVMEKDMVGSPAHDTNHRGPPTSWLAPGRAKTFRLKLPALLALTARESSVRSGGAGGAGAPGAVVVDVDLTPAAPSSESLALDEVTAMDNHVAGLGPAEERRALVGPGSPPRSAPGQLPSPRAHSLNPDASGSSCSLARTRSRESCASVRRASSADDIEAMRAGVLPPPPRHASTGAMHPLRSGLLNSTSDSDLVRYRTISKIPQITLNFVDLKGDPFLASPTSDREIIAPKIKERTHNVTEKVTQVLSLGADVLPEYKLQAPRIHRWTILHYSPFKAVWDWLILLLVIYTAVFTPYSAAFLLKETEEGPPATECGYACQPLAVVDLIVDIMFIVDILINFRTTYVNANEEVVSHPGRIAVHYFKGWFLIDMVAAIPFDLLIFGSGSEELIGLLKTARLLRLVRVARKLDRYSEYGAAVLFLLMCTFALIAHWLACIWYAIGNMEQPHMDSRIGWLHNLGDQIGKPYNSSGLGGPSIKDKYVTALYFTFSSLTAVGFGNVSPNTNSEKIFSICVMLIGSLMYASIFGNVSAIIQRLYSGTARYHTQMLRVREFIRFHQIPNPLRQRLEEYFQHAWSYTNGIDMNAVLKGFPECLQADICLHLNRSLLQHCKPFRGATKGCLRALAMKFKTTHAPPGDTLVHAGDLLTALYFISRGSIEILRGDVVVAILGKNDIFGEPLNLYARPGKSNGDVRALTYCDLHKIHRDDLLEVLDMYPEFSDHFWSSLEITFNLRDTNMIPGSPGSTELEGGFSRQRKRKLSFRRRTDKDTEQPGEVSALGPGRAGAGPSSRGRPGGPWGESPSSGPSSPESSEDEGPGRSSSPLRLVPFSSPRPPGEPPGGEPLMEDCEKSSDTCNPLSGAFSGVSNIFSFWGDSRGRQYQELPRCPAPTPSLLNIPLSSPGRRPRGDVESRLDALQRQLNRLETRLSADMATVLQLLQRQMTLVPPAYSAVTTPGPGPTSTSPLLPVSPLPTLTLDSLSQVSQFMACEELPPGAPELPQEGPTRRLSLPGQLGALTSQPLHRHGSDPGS

hERG potassium channel [4] = biological target: hERG potassium channel (Homo sapiens, UniProt Q12809, F656A); test: whole-cell patch clamp, inhibition at […]
hERG potassium channel [5] = biological target: hERG potassium channel (Homo sapiens, UniProt Q12809, V625A); test: whole-cell patch clamp, inhibition at […]
Sequence of hERG potassium channel (Homo sapiens, UniProt Q12809, V625A) (Q12809 whole entry V625A): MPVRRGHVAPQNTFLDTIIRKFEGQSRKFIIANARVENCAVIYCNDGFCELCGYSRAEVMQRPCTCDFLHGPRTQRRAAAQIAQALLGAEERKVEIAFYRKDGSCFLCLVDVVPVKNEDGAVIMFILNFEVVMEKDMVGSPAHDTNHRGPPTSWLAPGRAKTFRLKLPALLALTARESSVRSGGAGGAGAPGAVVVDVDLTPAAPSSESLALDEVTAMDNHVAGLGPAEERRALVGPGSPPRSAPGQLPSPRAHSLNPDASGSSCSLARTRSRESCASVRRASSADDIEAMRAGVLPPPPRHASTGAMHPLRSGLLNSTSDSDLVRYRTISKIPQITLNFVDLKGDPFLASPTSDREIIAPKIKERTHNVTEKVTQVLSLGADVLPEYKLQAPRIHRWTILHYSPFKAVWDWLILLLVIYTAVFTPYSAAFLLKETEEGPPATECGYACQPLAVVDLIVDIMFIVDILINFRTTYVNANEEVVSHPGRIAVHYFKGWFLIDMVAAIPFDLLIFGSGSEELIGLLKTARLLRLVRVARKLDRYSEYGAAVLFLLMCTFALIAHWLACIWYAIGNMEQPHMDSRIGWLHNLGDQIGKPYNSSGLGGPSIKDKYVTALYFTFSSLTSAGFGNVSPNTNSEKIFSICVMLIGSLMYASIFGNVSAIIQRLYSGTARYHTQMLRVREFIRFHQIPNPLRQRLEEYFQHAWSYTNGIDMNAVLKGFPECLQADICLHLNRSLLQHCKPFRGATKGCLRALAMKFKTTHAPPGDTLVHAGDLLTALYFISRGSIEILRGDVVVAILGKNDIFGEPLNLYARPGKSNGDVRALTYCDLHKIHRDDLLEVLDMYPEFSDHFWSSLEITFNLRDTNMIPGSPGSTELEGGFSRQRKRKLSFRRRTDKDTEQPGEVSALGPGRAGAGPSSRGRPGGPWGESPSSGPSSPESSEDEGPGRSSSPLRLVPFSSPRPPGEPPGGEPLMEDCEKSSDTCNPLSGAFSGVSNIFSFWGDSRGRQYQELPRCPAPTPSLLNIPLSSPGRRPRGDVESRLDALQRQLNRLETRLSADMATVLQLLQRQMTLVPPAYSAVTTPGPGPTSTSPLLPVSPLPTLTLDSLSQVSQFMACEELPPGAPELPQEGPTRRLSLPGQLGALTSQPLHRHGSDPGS

hERG potassium channel [6] = biological target: hERG potassium channel (Homo sapiens, UniProt Q12809, Y652A); test: whole-cell patch clamp, inhibition at […]

Sequence of hERG potassium channel (Homo sapiens, UniProt Q12809, T623A) (Q12809 whole entry T623A): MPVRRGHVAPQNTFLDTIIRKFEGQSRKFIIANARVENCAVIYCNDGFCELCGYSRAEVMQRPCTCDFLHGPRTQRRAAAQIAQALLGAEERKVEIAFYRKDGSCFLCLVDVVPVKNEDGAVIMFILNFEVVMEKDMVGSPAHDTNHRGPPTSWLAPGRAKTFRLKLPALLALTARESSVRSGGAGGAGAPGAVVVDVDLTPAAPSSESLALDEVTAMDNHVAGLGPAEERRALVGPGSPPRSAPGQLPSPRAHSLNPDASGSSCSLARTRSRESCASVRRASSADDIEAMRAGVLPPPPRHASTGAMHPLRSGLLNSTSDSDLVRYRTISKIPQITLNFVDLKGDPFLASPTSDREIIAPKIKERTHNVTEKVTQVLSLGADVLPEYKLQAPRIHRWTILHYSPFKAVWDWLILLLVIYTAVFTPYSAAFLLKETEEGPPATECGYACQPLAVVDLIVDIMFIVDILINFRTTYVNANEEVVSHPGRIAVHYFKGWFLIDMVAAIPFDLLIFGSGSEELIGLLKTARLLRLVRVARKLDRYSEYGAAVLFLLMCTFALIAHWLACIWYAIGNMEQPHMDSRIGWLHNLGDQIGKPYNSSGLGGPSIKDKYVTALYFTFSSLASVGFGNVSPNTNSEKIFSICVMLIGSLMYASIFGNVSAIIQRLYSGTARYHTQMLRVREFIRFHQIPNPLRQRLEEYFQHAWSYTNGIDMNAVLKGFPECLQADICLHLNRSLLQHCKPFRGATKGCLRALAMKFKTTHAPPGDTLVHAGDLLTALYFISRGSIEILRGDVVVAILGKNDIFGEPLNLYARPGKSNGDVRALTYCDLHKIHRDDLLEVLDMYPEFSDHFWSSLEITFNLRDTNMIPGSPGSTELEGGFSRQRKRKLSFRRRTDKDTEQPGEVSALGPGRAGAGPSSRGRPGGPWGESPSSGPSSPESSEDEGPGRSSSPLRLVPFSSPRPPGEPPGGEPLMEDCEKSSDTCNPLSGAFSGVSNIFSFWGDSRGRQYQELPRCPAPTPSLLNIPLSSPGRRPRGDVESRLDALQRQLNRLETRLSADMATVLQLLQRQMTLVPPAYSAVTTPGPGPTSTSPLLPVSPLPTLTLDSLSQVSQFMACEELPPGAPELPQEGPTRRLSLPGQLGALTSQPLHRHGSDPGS
Sequence of hERG potassium channel (Homo sapiens, UniProt Q12809) (Q12809 whole entry): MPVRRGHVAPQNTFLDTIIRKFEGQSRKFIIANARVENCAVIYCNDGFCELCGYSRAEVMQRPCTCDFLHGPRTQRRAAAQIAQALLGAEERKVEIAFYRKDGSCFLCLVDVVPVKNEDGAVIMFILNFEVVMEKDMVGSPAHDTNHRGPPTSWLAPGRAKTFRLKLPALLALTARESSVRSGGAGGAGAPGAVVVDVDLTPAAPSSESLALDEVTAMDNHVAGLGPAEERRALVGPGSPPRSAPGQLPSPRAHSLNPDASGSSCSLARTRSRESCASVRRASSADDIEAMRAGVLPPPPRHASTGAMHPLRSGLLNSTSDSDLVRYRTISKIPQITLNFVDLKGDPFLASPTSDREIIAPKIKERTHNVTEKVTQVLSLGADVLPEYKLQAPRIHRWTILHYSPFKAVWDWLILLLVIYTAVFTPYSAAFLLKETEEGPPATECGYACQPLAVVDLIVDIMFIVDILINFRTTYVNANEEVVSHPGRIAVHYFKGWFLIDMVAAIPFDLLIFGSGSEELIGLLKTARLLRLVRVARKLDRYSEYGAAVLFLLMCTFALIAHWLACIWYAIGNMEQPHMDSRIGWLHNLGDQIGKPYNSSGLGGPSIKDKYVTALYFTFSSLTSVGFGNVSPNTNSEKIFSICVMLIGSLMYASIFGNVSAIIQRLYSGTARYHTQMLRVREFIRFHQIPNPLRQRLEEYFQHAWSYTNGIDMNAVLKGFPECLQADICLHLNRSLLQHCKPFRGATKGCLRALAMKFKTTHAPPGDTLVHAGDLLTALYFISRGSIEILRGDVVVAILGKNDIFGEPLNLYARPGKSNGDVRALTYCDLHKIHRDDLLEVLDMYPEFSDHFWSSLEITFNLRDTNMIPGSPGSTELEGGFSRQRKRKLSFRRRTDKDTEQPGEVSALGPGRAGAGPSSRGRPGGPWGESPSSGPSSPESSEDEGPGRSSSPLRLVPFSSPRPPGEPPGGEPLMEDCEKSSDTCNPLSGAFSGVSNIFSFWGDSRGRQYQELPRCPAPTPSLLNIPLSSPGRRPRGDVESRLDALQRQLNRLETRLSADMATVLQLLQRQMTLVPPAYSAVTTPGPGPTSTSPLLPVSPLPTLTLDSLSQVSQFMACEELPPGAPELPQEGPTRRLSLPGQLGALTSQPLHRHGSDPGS

CC1=C(O)C(=O)C=C2C1=CC=C1[C@@]2(C)CC[C@@]2(C)[C@@H]3C[C@](C)(C(=O)O)CC[C@]3(C)CC[C@]12C [Celastrol]
IC50 (hERG potassium channel [1]): 830 nM | inhibition at 1 µM (hERG potassium channel [2]): 36.2 ± 0.4% | IC50 (hERG potassium channel [3]): 4000 ± 300 nM | inhibition at 1 µM (hERG potassium channel [4]): 34.5 ± 1.5% | inhibition at 1 µM (hERG potassium channel [5]): 51.6 ± 4.3% | inhibition at 1 µM (hERG potassium channel [6]): 56.3 ± 1.6%
